For test [1], the target named is T1, GLP1R (Homo sapiens, UniProt P43220). In words: GLP1R cAMP assay (HTRF), HEK293/GLP-1R/CRE/Luc, Clone 4. A general note: Changes in cAMP serve as a functional read-out for many G protein-coupled receptors.
Target sequence in this assay (P43220 24-463): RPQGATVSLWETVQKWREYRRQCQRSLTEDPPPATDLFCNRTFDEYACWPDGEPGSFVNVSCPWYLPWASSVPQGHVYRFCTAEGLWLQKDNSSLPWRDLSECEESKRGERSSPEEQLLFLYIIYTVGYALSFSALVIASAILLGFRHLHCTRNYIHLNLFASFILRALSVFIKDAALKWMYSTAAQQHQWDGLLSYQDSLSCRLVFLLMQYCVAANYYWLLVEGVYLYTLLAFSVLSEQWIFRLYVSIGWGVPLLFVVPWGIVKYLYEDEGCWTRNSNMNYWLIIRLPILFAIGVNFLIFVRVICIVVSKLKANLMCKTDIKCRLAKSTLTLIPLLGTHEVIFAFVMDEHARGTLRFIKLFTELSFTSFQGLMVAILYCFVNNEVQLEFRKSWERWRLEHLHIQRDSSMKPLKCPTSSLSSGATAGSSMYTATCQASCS
Protocol: GLP-1R-mediated agonist activity was determined with a cell-based functional assay utilizing an HTRF (Homogeneous Time-Resolved Fluorescence) cAMP detection kit (cAMP Dynamic 2 Assay Kit; CisBio cat #62AM4PEC) that measures cAMP levels in the cell. The method is a competitive immunoassay between native cAMP produced by the cells and exogenous cAMP labeled with the dye d2. The tracer binding is visualized by a mAb anti-cAMP labeled with Cryptate. The specific signal (i.e., energy transfer) is inversely proportional to the concentration of cAMP in either standard or experimental sample.
The human GLP-1R coding sequence (NCBI Reference Sequence NM_002062) was subcloned into pcDNA3.1+/Hygro vector (Invitrogen) and transfected into HEK293/CRE/Luc parental cell line. A cell line stably expressing the receptor was isolated.
Varying concentrations of each compound to be tested (in DMSO) were diluted in DMSO to obtain 200× compound working solution first and then 50 nl compounds were added to a white 384-well assay plate (Greiner 784075) with ECHO. The final DMSO concentration was 0.5%.
Cells were removed from cryopreservation, re-suspended in 5 mL of Dulbecco's Phosphate Buffered Saline (DPBS-Sigma Cat #D8537) and centrifuged at 900×g for 5 min at 22° C. The cell pellet was then re-suspended in 1 mL of assay buffer [DPBS with 500 μM IBMX (Sigma #15879) and 0.1% BSA (Sigma #A1933). IBMX and BSA were freshly added on the day of assay]. A 10 μL sample of the cell suspension was counted on an Invitrogen Countess II to determine cell viability and cell count per mL. The remaining cell suspension was then adjusted with assay buffer to deliver 1000 viable cells per well using a Matrix Combi Multidrop reagent dispenser. 10 μL cell suspensions were added to each well
of the assay plate which already contains compound. The plate was sealed and incubated at 37° C. with 5% CO2 for 30 minutes.
Following the 30 minute incubation, 5 μL of labeled d2 cAMP and 5 μL of anti-cAMP antibody (both diluted 1:20 in cell lysis buffer; as described in the manufacturer's assay protocol) were added to each well of the assay plate. The plates were then incubated at room temperature and after 60 minutes, changes in the HTRF signal were read with an Envision multi-label plate reader using excitation of 330 nm and emissions of 615 and 665 nm. Raw data were converted to nM cAMP by interpolation from a cAMP standard curve (as described in the manufacturer's assay protocol) and the percent effect was determined relative to a saturating concentration of the full agonist GLP-17-37 (10 nM) included on each plate. EC50 determinations were made from agonist dose-response curves analyzed with a curve fitting program using a 4-parameter logistic dose response equation.
Test [2] deals with T1, GLP1R. Also on record: Emax: dose or concentration left out as unconfirmed. The settings on record: for Emax: CHO-K1, […], read-out: β-arrestin recruitment Bmax (%). (Arrestin recruitment assays detect the binding of arrestin to an activated receptor.)
Target sequence in this assay (P43220 24-463): as above
Target sequence in this assay (P32121 whole entry partner): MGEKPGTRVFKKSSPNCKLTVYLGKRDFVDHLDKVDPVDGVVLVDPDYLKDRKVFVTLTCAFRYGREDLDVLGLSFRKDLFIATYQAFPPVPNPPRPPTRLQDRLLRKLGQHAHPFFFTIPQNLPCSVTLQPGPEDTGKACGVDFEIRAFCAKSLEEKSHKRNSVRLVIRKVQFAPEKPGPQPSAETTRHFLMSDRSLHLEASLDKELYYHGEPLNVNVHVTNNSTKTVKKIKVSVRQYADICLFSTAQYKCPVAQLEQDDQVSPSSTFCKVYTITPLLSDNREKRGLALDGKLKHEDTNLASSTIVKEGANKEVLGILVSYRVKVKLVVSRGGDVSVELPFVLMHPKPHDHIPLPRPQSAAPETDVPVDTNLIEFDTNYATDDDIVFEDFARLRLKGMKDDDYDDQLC
Protocol: Frozen cells were quickly thawed and 10 mL of cell plating medium (provided by the kit) was added to thawed cells. Cells were stored in a 37° C. incubator under 5% CO2 and kept for approximately 48 hours until ready to run the assay.
Reference and test compounds were dissolved in 100% DMSO. […] 5 μL of this solution was added to 20 μL cell medium in assay plate for a final top concentration of 10 μM. Plates were then incubated at 37° C. under 5% CO2 for 90 min.
Following 90 min incubation, detection reagents were made up by combining 1 part Galacton Star Substrate with 5 parts Emerald II™ Solution, and 19 parts of PathHunter Cell Assay Buffer, respectively. 12.5 μl detection reagent was added to each well. The plates were then incubated at room temperature in dark for 60 min. Plates were then read on Envision for 0.1 sec/well.
EC50 determinations were made from agonist dose-response curves analyzed with a curve fitting program using a 4-parameter logistic dose response equation.
Cells were plated at a density of 1000 or 2000 cells/20 μL/well. Frozen cells were quickly thawed and added to 10 mL of cell plating medium. Cells were stored in a 37 degree incubator under 5% CO2 and left for approximately 48 hours until ready to run the assay
Prepare 10× concentration of an agonist in serum free DMEM, and add all solutions into the compound plate. 2.5 μL of this solution was added to 20 μL cell medium in assay plate for a final top concentration of 10 μM. Plates were incubated at 37° C. under 5% CO2 for 30 min. An additional 2.5 μL of Buffer was added to the entire plate for agonist mode and incubated at 37° C. for another 90 min.
Following 90 min incubation, detection reagents were made up as described. 12.5 μL was added to all wells. The plates were then incubated at room temperature in dark for 60 min. Plates were then read on Envision for 0.1 sec/well.
Data analysis: GraphPad Prism 6 was used for establishment of progression curve. EC50s or IC50s were determined by 4-parameter logistic dose response equation.

Structures are written as SMILES.

By EC50 is commonly meant the midpoint of the concentration-response curve. At GLP1R [1], `O=C(O)c1ccc2nc(Cn3ccc(-c4cccc(OCc5ccc(Cl)cc5F)n4)cc3=O)n(C[C@@H]3CCO3)c2c1` [Compound 323, (S)-2-((6-((4-chloro-2-fluorobenzyl)oxy)-2′-oxo-[2,4′-bipyridin]-1′(2′H)-yl)methyl)-1-(oxetan-2-ylmethyl)-1H-benzo[d]imidazole-6-carboxylic acid] showed an EC50 below 15 nM. Also, the “β-arrestin recruitment Bmax (%)” value at GLP1R [2] (partial maximum relative effect at the highest concentration tested (top 10 μM), relative to Bmax of GLP-1 (7-37), PathHunter CHO-K1 GLP1R β-Arrestin cells) was determined as 19.4%.
Compound `O=C(O)c1ccc2nc(Cc3ccc(-c4ncc(F)c(OCc5ccc(F)cc5F)n4)cc3F)n(C[C@@H]3CCO3)c2n1` [Compound 285, (S)-2-(4-(4-((2,4-difluorobenzyl)oxy)-5-fluoropyrimidin-2-yl)-2-fluorobenzyl)-3-(oxetan-2-ylmethyl)-3H-imidazo[4,5-b]pyridine-5-carboxylic acid] showed an EC50 at GLP1R [1] below 15 nM. The Emax on GLP1R [2] is 24%.
`N#Cc1ccc(COc2cccc(-c3cc(F)c(Cc4nc5ccc(C(=O)O)cc5n4C[C@@H]4CCO4)cc3F)n2)c(F)c1` [Compound 271, (S)-2-(4-(6-((4-cyano-2-fluorobenzyl)oxy)pyridin-2-yl)-2,5-difluorobenzyl)-1-(oxetan-2-ylmethyl)-1H-benzo[d]imidazole-6-carboxylic acid] returned an EC50 on GLP1R [1] below 15 nM. At GLP1R [2], the Emax came out at 28.5%.
`O=C(O)c1ccc2nc(Cc3cc(F)c(-c4cccc(OCc5ccc(Cl)cc5F)n4)cc3F)n(C[C@@H]3CCO3)c2c1` [Compound 257, (S)-2-(4-(6-((4-chloro-2-fluorobenzyl)oxy)pyridin-2-yl)-2,5-difluorobenzyl)-1-(oxetan-2-ylmethyl)-1H-benzo[d]imidazole-6-carboxylic acid]: the EC50 at GLP1R [1] was below 15 nM. In addition, the Emax on GLP1R [2] was 31.4%.
Turning to `N#Cc1ccc(COc2ncccc2C2=CCN(Cc3nc4ccc(C(=O)O)cc4n3C[C@@H]3CCO3)CC2)c(F)c1` [Compound 333, (S)-2-((4-(2-(4-cyano-2-fluorobenzyloxy)pyridin-3-yl)-5,6-dihydropyridin-1(2H)-yl)methyl)-1-(oxetan-2-ylmethyl)-1H-benzo[d]imidazole-6-carboxylic acid], the EC50 on GLP1R [1] was in the range of 15 to 150 nM. On GLP1R [2], the Emax is 9.75%.
`N#Cc1ccc(COc2nc(-c3ccc(Cc4nc5ccc(C(=O)O)nc5n4C[C@@H]4CCO4)cc3F)ccc2F)c(F)c1` [Compound 289, (S)-2-(4-(6-((4-cyano-2-fluorobenzyl)oxy)-5-fluoropyridin-2-yl)-3-fluorobenzyl)-3-(oxetan-2-ylmethyl)-3H-imidazo[4,5-b]pyridine-5-carboxylic acid]: the EC50 at GLP1R [1] is below 15 nM. For the same compound, the Emax at GLP1R [2] was found to be 29.6%.
Compound `O=C(O)c1ccc2nc(Cc3ccc(-c4cccc(OCc5ccc(Cl)cc5F)n4)c(F)c3)n(C[C@@H]3CCO3)c2n1` [Compound 102, (S)-2-(4-(6-((4-chloro-2-fluorobenzyl)oxy)pyridin-2-yl)-3-fluorobenzyl)-3-(oxetan-2-ylmethyl)-3H-imidazo[4,5-b]pyridine-5-carboxylic acid] registered an EC50 at GLP1R [1] below 15 nM. The Emax at GLP1R [2] came to 28.3%.
For `N#Cc1ccc(COc2cccc(-c3ccc(Cc4nc5ccc(C(=O)O)nc5n4C[C@@H]4CCO4)cc3F)n2)c(F)c1` [Compound 293, (S)-2-(4-(6-((4-cyano-2-fluorobenzyl)oxy)pyridin-2-yl)-3-fluorobenzyl)-3-(oxetan-2-ylmethyl)-3H-imidazo[4,5-b]pyridine-5-carboxylic acid], in that order: below 15 nM and 32%.
On to `O=C(O)c1ccc2nc(CN3CC=C(c4csnc4OCc4ccc(Cl)cc4F)CC3)n(C[C@@H]3CCO3)c2c1` [Compound 332, (S)-2-((4-(3-(4-chloro-2-fluorobenzyloxy)isothiazol-4-yl)-5,6-dihydropyridin-(2H)-yl)methyl)-1-(oxetan-2-ylmethyl)-1H-benzo[d]imidazole-6-carboxylic acid], for which the EC50 on GLP1R [1] was below 15 nM. Besides, the Emax on GLP1R [2] is 14.5%.
`O=C(O)c1ccc2nc(CN3CC=C(c4scnc4OCc4ccc(Cl)cc4F)CC3)n(C[C@@H]3CCO3)c2c1` [Compound 331, (S)-2-((4-(4-((4-chloro-2-fluorobenzyl)oxy)thiazol-5-yl)-3,6-dihydropyridin-1(2H)-yl)methyl)-1-(oxetan-2-ylmethyl)-1H-benzo[d]imidazole-6-carboxylic acid] returned an EC50 at GLP1R [1] below 15 nM. In addition, at GLP1R [2], the Emax was determined as 17.9%.
`O=C(O)c1ccc2nc(Cc3ccc(-c4ccc(F)c(OCc5ccc(Cl)cc5F)n4)c(F)c3)n(C[C@@H]3CCO3)c2n1` [Compound 305, (S)-2-(4-(6-((4-chloro-2-fluorobenzyl)oxy)-5-fluoropyridin-2-yl)-3-fluorobenzyl)-3-(oxetan-2-ylmethyl)-3H-imidazo[4,5-b]pyridine-5-carboxylic acid]: at GLP1R [1], the EC50 was below 15 nM. Besides, the Emax at GLP1R [2] amounted to 31.8%.
In turn, `N#Cc1ccc(COc2nc(-c3cc(F)c(Cc4nc5ccc(C(=O)O)c(F)c5n4C[C@@H]4CCO4)cc3F)ncc2F)nc1` [Compound 313, (S)-2-(4-(4-((5-cyanopyridin-2-yl)methoxy)-5-fluoropyrimidin-2-yl)-2,5-difluorobenzyl)-7-fluoro-1-(oxetan-2-ylmethyl)-1H-benzo[d]imidazole-6-carboxylic acid] returned an EC50 at GLP1R [1] below 15 nM.
On GLP1R [1], `O=C(O)c1ccc2nc(C=C3CCN(c4cccc(OCc5ccc(F)cc5F)n4)CC3)n(C[C@@H]3CCO3)c2n1` [Compound 315, (S)-2-((1-(6-(2,4-difluorobenzyloxy)pyridin-2-yl)piperidin-4-ylidene)methyl)-3-(oxetan-2-ylmethyl)-3H-imidazo[4,5-b]pyridine-5-carboxylic acid] showed an EC50 of 150 to 1000 nM.
In the case of `CC1(c2ccc(C#N)cc2F)Oc2cccc(C3=CCN(Cc4nc5ccc(C(=O)O)cc5n4C[C@@H]4CCO4)CC3)c2O1` (stereo partly drawn) [Compound 334, 2-((4-(2-(4-cyano-2-fluorophenyl)-2-methylbenzo[d][1,3]dioxol-4-yl)-3,6-dihydropyridin-1(2H)-yl)methyl)-1-(((S)-oxetan-2-yl)methyl)-1H-benzo[d]imidazole-6-carboxylic acid], the EC50 at GLP1R [1] is below 15 nM. Besides, on GLP1R [2], the Emax was found to be 26.6%.
For the compound `N#Cc1ccc(COc2cccc(N3CCC(=Cc4nc5ccc(C(=O)O)nc5n4C[C@@H]4CCO4)CC3)n2)nc1` [Compound 316, (S)-2-((1-(6-((5-cyanopyridin-2-yl)methoxy)pyridin-2-yl)piperidin-4-ylidene)methyl)-3-(oxetan-2-ylmethyl)-3H-imidazo[4,5-b]pyridine-5-carboxylic acid], on GLP1R [1], the EC50 was in the range of 15 to 150 nM.
For the compound `N#Cc1ccc(COc2nc(-c3ccc(Cc4nc5ccc(C(=O)O)nc5n4C[C@@H]4CCO4)c(F)c3)ccc2F)c(F)c1` [Compound 284, (S)-2-(4-(6-(4-cyano-2-fluorobenzyloxy)-5-fluoropyridin-2-yl)-2-fluorobenzyl)-3-(oxetan-2-ylmethyl)-3H-imidazo[4,5-b]pyridine-5-carboxylic acid], on GLP1R [1], the EC50 was below 15 nM. Besides, the Emax on GLP1R [2] worked out at 25.5%.
